Test [1] deals with mouse T lymphocytes. The experiment in a line: Immunosuppressive activity (proliferation of T lymphocytes stimulated with ionomycin plus PMA, tritiated thymidine uptake). It counts as cell-based, mouse (C57BI/6). As to conditions: general statement; no value given. The protocol: A positive sample in this assay will inhibit-T-cell proliferation, as indicated by reduced tritiated thymidine uptake.
Spleens from C57BI/6 mice are taken under sterile conditions and gently dissociated in ice-cold RPMI 1640 (trademark) culture medium (GIBCO (trademark)) supplemented with 10% heat-inactivated fetal calf serum (GIBCO (trademark)). Cells are pelleted by centrifugation at 1500 rpm for 8 minutes. Contaminating red cells are removed by treating the pellet with ammonium chloride lysing buffer (GIBCO (trademark)) for 2 minutes at 4° C. Cold medium is added and cells are again centrifuged at 1500 rpm for 8 minutes. […]
Purified T lymphocytes are resuspended at 10^6 cells/ml in complete culture medium composed of RPMI 1640 (trademark) medium with 10% heat-inactivated fetal calf serum, […] glutamine, 1 mM sodium pyruvate, 20 µm 2-mercaptoethanol and 50 μg/ml gentamicin. […] The proliferation of T lymphocytes is assessed by measurement of tritiated […] incorporation. […] Radioactivity of filter discs corresponding to individual wells is measured by standard liquid scintillation counting method (Beta plate counter). Mean counts per minute of replicate wells are calculated and the results expressed as percent inhibition of tritiated thymidine uptake (proliferation) as follows: [formula]

In test [2] the test system is pathogenic filamentus fungal organisms. The experiment in a line: Antimicrobial activity (general statement).
Test [3] relates to human FK-binding protein. Description: Inhibition of rotamase activity of FK-binding protein. It counts as biochemical.

The record followed here is US5494820A, “Streptomyces braegensis strain and its cultivation in a process for producing C9 -desoxo-FK-520” (Pfizer Inc., priority 1994, dated 1996).

SMILES strings stand for the structures.

Consider `CCC1C=C(C)CC(C)CC(OC)C2OC(O)(CC(=O)N3CCCCC3C(=O)OC(C(C)=CC3CCC(O)C(OC)C3)C(C)C(O)CC1=O)C(C)CC2OC` (stereo not drawn) [compound of the formula I, C9 -desoxo-FK-520], for which the immunosuppressive activity result in test [1] was “has immunosuppressive activity”. In addition, in test [2], the antimicrobial activity result is on record as “has antimicrobial activity”. Further, the “inhibition of the rotamase activity of human FK-binding protein” value in test [3] is “inhibits the rotamase activity of human FK-binding protein”.
